Laboratory results reported in US11976083B2, “Inhibitors of peptidylarginine deiminases” (Gilead Sciences, Inc., priority 2020, dated 2024).
pIC50: −log10 of the molar value.

target: T1, human PAD4 (Homo sapiens, UniProt Q9UM07); assay: In vitro PAD4 BAEE biochemical assay; conditions: BAEE substrate 3 mM, 5 nM PAD4, 2 mM calcium chloride; geometric mean of multiple experiments
T1 construct: human PAD4 (NM_012387), A2-P663, was PCR amplified; His-SUMO (N, cleaved yes); made in house; host or cells: E. coli BL21(DE3)
In short: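 Recombinant PAD4 (5 nM final) with 2 mM CaCl2 was preincubated with compound for 30 min at 25 °C in MOPS pH 7.6 buffer with DTT, then reacted with 3 mM BAEE for 2 h at 25 °C. Released ammonia was detected fluorimetrically with o-phthalaldehyde/DTT; IC50 from four-parameter fit, geometric mean of experiments.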

T1 sequence (Q9UM07 2-663): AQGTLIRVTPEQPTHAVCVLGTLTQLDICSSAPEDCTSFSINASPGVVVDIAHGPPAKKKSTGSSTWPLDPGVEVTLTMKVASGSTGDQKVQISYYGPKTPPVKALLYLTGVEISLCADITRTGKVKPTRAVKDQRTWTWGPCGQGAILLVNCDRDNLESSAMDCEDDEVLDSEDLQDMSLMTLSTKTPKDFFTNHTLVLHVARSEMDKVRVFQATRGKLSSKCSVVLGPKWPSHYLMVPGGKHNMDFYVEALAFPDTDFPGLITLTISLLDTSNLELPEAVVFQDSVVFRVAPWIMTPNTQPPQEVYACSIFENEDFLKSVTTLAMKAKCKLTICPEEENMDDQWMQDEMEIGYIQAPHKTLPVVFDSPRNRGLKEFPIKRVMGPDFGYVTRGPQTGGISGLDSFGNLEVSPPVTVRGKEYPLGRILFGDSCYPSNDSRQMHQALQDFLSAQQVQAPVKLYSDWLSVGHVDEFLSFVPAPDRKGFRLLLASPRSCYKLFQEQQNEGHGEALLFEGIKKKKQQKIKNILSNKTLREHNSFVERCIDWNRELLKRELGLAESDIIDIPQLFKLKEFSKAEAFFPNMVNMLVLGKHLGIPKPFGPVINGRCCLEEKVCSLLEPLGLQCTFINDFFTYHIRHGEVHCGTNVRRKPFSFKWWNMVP

pIC50 | SMILES
6.02 | COc1cc(C(=O)N2CC[C@@H](OC)[C@@H](N)C2)cc2nc(-c3cc4ccc5nc4n3CCCCCCC(C)(C)C(=O)NC5C(F)(F)F)n(C)c12 (some centres unmarked) [Example 785, 17-[5-[(3~{S},4~{R})-3-amino-4-methoxy-piperidine-1-carbonyl]-7-methoxy-1-methyl-benzimidazol-2-yl]-8,8-dimethyl-11-(trifluoromethyl)-1,10,19-triazatricyclo [10.5.2.0^{15,18}]nonadeca-12,14,16,18-tetraen-9-one]
7.09 | COc1cc(C(=O)N2[C@H]3CC[C@@H]2[C@H](N)C3)cc2nc(-c3cc4ccc5nc4n3CCCCCCC3(CC3)C(=O)N[C@@H]5C)n(C)c12 [Example 279, (11~{R})-17-[5-[(1~{R},2~{R},4~{S})-2-amino-7-azabicyclo[2.2.1]heptane-7-carbonyl]-7-methoxy-1-methyl-benzimidazol-2-yl]-11-methyl-spiro[1,10,19-triazatricyclo[10.5.2.0^{15,18}]nonadeca-12(19),13,15(18),16-tetraene-8,1′-cyclopropane]-9-one]
7.57 | C[C@H]1NC(=O)c2ccc(Cl)nc2CCCCCn2c(-c3nc4cc(C(=O)N5C[C@H](N)[C@@H]6CC[C@H]5C6)cc(F)c4n3[C@H]3C[C@H]3F)cc3ccc1nc32 [Example 846, (2~{R})-17-[5-[(1~{S),4~{R}, 5~{R})-4-amino-2-azabicyclo [3.2.1]octane-2-carbonyl]-7-fluoro-1-[(1~{S},2~{R})-2-fluorocyclopropyl]benzimidazol-2-yl]-8-chloro-2-methyl-3,9,16,22-tetrazatetracyclo[14.5.2.0^ {5,10).0^{19,23}]tricosa-1(22),5(10),6,8,17,19(23),20-heptaen-4-one]
7.29 | COc1cc(C(=O)N2C[C@H](N)[C@@H]3CC[C@H]2C3)cc2nc(-c3cc4ccc5nc4n3CCCCCc3cc4ccccc4nc3C(=O)N[C@@H]5C)n(C)c12 [Example 461, (2~{R})-21-[5-[(1~{S},4~{R},5~{R})-4-amino-2-azabicyclo[3.2.1]octane-2-carbonyl]-7-methoxy-1-methyl-benzimidazol-2-yl]-2-methyl-3,6,20,26-tetrazapentacyclo[18.5.2.0^ {5,14}.0^{7,12}.0^ {23,27}]heptacosa-1(26),5(14),6,8,10,12,21,23(27),24-nonaen-4-one]
6.96 | COc1cc(C(=O)N[C@H]2CNCC[C@@H]2F)cc2nc(-c3cc4ccc5nc4n3CCCCC[C@H]3CC[C@@H]3C(=O)N[C@@H]5C)n(C)c12 (single isomer, unassigned) [Example 486, ˜{N}-[(3˜{S},4˜{S})-4-fluoro-3-piperidyl]-7-methoxy-1-methyl-2-[(2˜{R},5˜{S},8˜{S})-2-methyl-4-oxo-3,14,20-triazatetracyclo[12.5.2.0^{5,8}.0^{17,21}]henicosa-1(20),15,17(21),18-tetraen-15-yl]benzimidazole-5-carboxamide]
7.03 | COc1cc(C(=O)N[C@H]2CNCC[C@@H]2F)cc2nc(-c3cc4ccc5nc4n3CCCCCC[C@H](OC)C(=O)N[C@@H]5C)n(C)c12 [Example 615, ˜{N}-[(3˜{S},4˜{S})-4-fluoro-3-piperidyl]-7-methoxy-2-[(8˜{S},11˜{R})-8-methoxy-11-methyl-9-oxo-1,10,19-triazatricyclo[10.5.2.0^{15,18}]nonadeca-12(19),13,15(18),16-tetraen-17-yl]-1-methyl-benzimidazole-5-carboxamide]
6.91 | C[C@H]1NC(=O)C(C)(C)CCCCCCn2c(-c3nc4cc(C(=O)N[C@H]5CNCC[C@@H]5F)c(Cl)cc4n3C)cc3ccc1nc32 [Example 541, 6-chloro-~{N}-[(3~ {S),4~{S})-4-fluoro-3-piperidyl]-1-methyl-2-[(11~{R})-8,8,11-trimethyl-9-oxo-1,10,19-triazatricyclo[10.5.2.0^ {15,18}]nonadeca-12(19), 13,15(18),16-tetraen-17-yl]benzimidazole-5-carboxamide]
7.43 | C[C@H]1NC(=O)c2ccc(Cl)nc2CCCCCn2c(-c3nc4cc(C(=O)N5C[C@H](N)[C@@H]6CC[C@H]5C6)cc(F)c4n3[C@@H]3C[C@@H]3F)cc3ccc1nc32 [Example 452, (2~{R})-17-[(1~{R})-5-[(1~{S},4~{R},5~{R})-4-amino-2-azabicyclo[3.2.1]octane-2-carbonyl]-7-fluoro-1-[(2~{S})-2-fluorocyclopropyl]benzimidazol-2-yl]-8-chloro-2-methyl-3,9,16,22-tetrazatetracyclo[14.5.2.0^{5,10).0^{19,23}] tricosa-1(22),5(10),6,8,17,19(23),20-heptaen-4-one]
7.77 | C[C@H]1NC(=O)c2ccc(Cl)nc2CCCCCn2c(-c3nc4cc(C(=O)N5C[C@H]6CC[C@@H]5[C@@H]6N)cc(F)c4n3C3CC3)cc3ccc1nc32 [Example 798, (2~{R})-17-[5-[(1~{R},4~{R}, 7~{R})-7-amino-2-azabicyclo [2.2.1]heptane-2-carbonyl]-1-cyclopropyl-7-fluoro-benzimidazol-2-yl]-8-chloro-2-methyl-3,9,16,22-tetrazatetracyclo[14.5.2.0^ {5,10}.0^{19,23}]tricosa-1(21),5(10),6,8,17,19,22-heptaen-4-one]
7.55 | C[C@H]1NC(=O)[C@@H]2C[C@@H]2CCCC(F)(F)Cn2c(-c3nc4cc(C(=O)N5C[C@H](N)[C@@H]6CC[C@H]5C6)cc(F)c4n3C3CC3)cc3ccc1nc32 [Example 682, (2~{R},5~{R},7~{S})-14-[5-[(1~{S},4~{R},5~{R})-4-amino-2-azabicyclo[3.2.1]octane-2-carbonyl]-1-cyclopropyl-7-fluoro-benzimidazol-2-yl]-11,11-difluoro-2-methyl-3,13,19-triazatetracyclo[11.5.2.0^ {5,7}.0^{16,20}] icosa-1(19),14,16(20), 17-tetraen-4-one]
6.95 | CC(C)OCCn1c(-c2cc3ccc4nc3n2CCCCCCC(C)(C)C(=O)N[C@@H]4C)nc2cc(C(=O)N[C@H]3CNCC[C@@H]3F)c(F)cc21 [Example 424, 6-fluoro-~{N}-[(3~{S},4~{S})-4-fluoro-3-piperidyl]-1-(2-isopropoxyethyl)-2-[(11~{R})-8,8,11-trimethyl-9-oxo-1,10,19-triazatricyclo[10.5.2.0^{15,18}]nonadeca-12(19),13,15(18),16-tetraen-17-yl]benzimidazole-5-carboxamide]
6.43 | C[C@H]1NC(=O)C(C)(C)CCCCCCn2c(-c3nc4cc(C(=O)N[C@H]5CNCC[C@@H]5F)c(F)cc4n3CC(F)(F)F)cc3ccc1nc32 [Example 419, 6-fluoro-~{N}-[(3~{S},4~{S})-4-fluoro-3-piperidyl]-1-(2,2,2-trifluoroethyl)-2-[(11~{R})-8,8,11-trimethyl-9-oxo-1,10,19-triazatricyclo[10.5.2.0^{15,18}]nonadeca-12(19),13,15(18),16-tetraen-17-yl]benzimidazole-5-carboxamide]
7.07 | COc1cc(C(=O)N2C[C@H]3CC[C@@H]2[C@@H]3N)cc2nc(-c3cc4ccc5nc4n3CCCCCc3nccnc3C(=O)N[C@@H]5C)n(C)c12 [Example 604, (2~{R})-17-[5-[(1~{R},4~ {R},7~{R})-7-amino-2-azabicyclo[2.2.1]heptane-2-carbonyl]-7-methoxy-1-methyl-benzimidazol-2-yl]-2-methyl-3,6,9,16,22-pentazatetracyclo[14.5.2.0^ {5,10}.0^{19,23}]tricosa-1(21),5(10),6,8,17,19,22-heptaen-4-one]
7.82 | C[C@@H]1[C@H](N)CCCN1C(=O)c1cc(F)c2c(c1)nc(-c1cc3ccc4nc3n1CC(F)(F)CCC[C@@H]1C[C@H]1C(=O)N[C@@H]4C)n2C1CC1 [Example 639, (2~{R},5~{R},7~{R})-14-[5-[(2~{R},3~{R})-3-amino-2-methyl-piperidine-1-carbonyl]-1-cyclopropyl-7-fluoro-benzimidazol-2-yl]-11,11-difluoro-2-methyl-3,13,19-triazatetracyclo[11.5.2.0^ {5,7}.0^{16,20}]icosa-1(19),14,16(20),17-tetraen-4-one]
7.07 | COc1cc(C(=O)N2C[C@H]3C[C@@H]2[C@@H]3N)cc2nc(-c3cc4ccc5nc4n3CC(F)(F)CCC[C@@H]3C[C@H]3C(=O)N[C@@H]5C)n(C)c12 [Example 666, (2~{R},5~{R},7~{R})-14-[5-[(1~{R},4~{R},5~{R})-5-amino-2-azabicyclo [2.1.1]hexane-2-carbonyl]-7-methoxy-1-methyl-benzimidazol-2-yl]-11,11-difluoro-2-methyl-3,13,19-triazatetracyclo [11.5.2.0^{5,7}.0^{16,20}] icosa-1(19),14,16(20),17-tetraen-4-one]
5.09 | COc1cc(C(=O)N[C@H]2CNCC[C@H]2OC)cc2nc(-c3cc4ccc5nc4n3CCCCCCC(C)(C)C(=O)N[C@@H]5C)n(C)c12 [Example 82, 7-methoxy-~{N}-[(3~{S},4~{R})-4-methoxy-3-piperidyl]-1-methyl-2-[(11~{R})-8,8,11-trimethyl-9-oxo-1,10,19-triazatricyclo[10.5.2.0^{15,18}]nonadeca-12(19),13,15(18),16-tetraen-17-yl]benzimidazole-5-carboxamide]
6.51 | COc1cc(C(=O)N2CC[C@@H](OC(F)F)[C@@H](N)C2)cc2nc(-c3cc4ccc5nc4n3CCCCCC[C@@](C)(C(F)(F)F)C(=O)N[C@@H]5C)n(C)c12 [Example 723, (8~{R},11~{R})-17-[5-[(3~ {S},4~{R})-3-amino-4-(difluoromethoxy)piperidine-1-carbonyl]-7-methoxy-1-methyl-benzimidazol-2-yl]-8,11-dimethyl-8-(trifluoromethyl)-1,10,19-triazatricyclo[10.5.2.0^ {15,18}]nonadeca-12(19), 13,15(18),16-tetraen-9-one]
